Assay results published in PMC7402526, “An in vitro quantitative systems pharmacology approach for deconvolving mechanisms of drug-induced, multilineage cytopenias” (PLoS Computational Biology, 2020).
pEC50: −log10 of the molar value. “Also recorded” adds a separate entry of the source.

Columns and labels:
[1] = system: multi-potent progenitors (MPPs); test: MLTA, MPPs: concentration-response and QSP model fit; type: cell-based, human; details: Homo sapiens, 144 h
Procedure, shortened: (§1)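 Six-day flow cytometry counts, bead-normalized and expressed relative to the mean of six vehicle wells, underlie each value. Cells were primary human bone marrow CD34+ cells cultured in SFEM II with cytokines promoting multi-lineage differentiation and self-renewal.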

[2] = system: granulocyte-macrophage progenitor (GMPs); test: MLTA, GMPs: concentration-response and QSP model fit; type: cell-based, human; details: Homo sapiens, 144 h
Procedure, shortened: as §1

granulocytes (Gran-lin) = test: MLTA, Gran: concentration-response and QSP model fit; type: cell-based, human; details: Homo sapiens, 144 h
Procedure, shortened: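 Freeze-thawed primary human bone marrow CD34+ cells were grown in SFEM II with a multi-lineage cytokine cocktail, drug added day 0, six days at 37°C. Lineage counts came from 17-parameter flow with TruCount beads, vehicle-normalized per donor, then fitted by an Emax-based QSP model.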

[3] = system: late erythroid cells (Eryth II); test: MLTA, ErythII: concentration-response and QSP model fit; type: cell-based, human; details: Homo sapiens, 144 h
Procedure, shortened: as §1

MK cells (MK-lin) = test: MLTA, MK: concentration-response and QSP model fit; type: cell-based, human; details: Homo sapiens, 144 h
Procedure, shortened: as §1

[4] = system: lymphocyte progenitors (LymP); test: MLTA, LymP: concentration-response and QSP model fit; type: cell-based, human; details: Homo sapiens, Lymphocyte, 144 h
Procedure, shortened: as §1

[5] = system: total viable cells (totalViableCells); test: MLTA, total live cells concentration-response; type: cell-based; details: Homo sapiens, 144 h, 6 days, normalized to vehicle control, read-out: total_live normalized cell count
Procedure, shortened: (§2)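 Freeze-thawed primary human bone marrow CD34+ cells in SFEM II with cytokine cocktail, drug added day 0, 6 days at 37°C, 5% CO2. Live/dead counts by 17-parameter flow cytometry with DAPI exclusion, bead-normalized, volume-corrected to cells/mL. Normalized per donor to mean of six vehicle wells; 2–7 donors pooled.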

[6] = system: total dead cells (totalDeadCells); test: MLTA, total dead cells concentration-response; type: cell-based; details: Homo sapiens, 144 h, 6 days, normalized to vehicle control, read-out: total_dead normalized cell count
Procedure, shortened: as §2

[7] = system: human bone marrow-derived CD34+ cells differentiated into multiple hematopoietic lineages; test: MLTA, overall effects across hematopoietic lineages; type: cell-based; details: 0.2-2500 nM, 6 days, relative to vehicle control
Procedure, shortened: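 Thawed primary human bone marrow CD34+ cells grown in SFEM II with a multi-lineage cytokine cocktail, drug added day 0, 6 days at 37°C, 5% CO2. Subsets counted by 17-parameter flow cytometry with TruCount beads, normalized to six vehicle wells per donor (2–7 donors); Emax model fitted per cell type.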

[8] = QSP model fit of 6-day MLTA data

## CS(=O)(=O)N1CCN(Cc2cc3nc(-c4cccc5[nH]ncc45)nc(N4CCOCC4)c3s2)CC1 [pictilisib]
[1]; dose 0.2 nM, 6 days, normalized to vehicle control, read-out: MPPs normalized cell count
  activity at 0.0002 µM: 89.3%
[1]; dose 1 nM, 6 days, normalized to vehicle control, read-out: MPPs normalized cell count
  activity at 0.001 µM: 82.2%
[1]; dose 5 nM, 6 days, normalized to vehicle control, read-out: MPPs normalized cell count
  activity at 0.005 µM: 71.7%
[1]; dose 25 nM, 6 days, normalized to vehicle control, read-out: MPPs normalized cell count
  activity at 0.025 µM: 67.2%
[1]; dose 100 nM, 6 days, normalized to vehicle control, read-out: MPPs normalized cell count
  activity at 0.1 µM: 49.1%
[1]; dose 500 nM, 6 days, normalized to vehicle control, read-out: MPPs normalized cell count
  activity at 0.5 µM: 38.2%
[1]; dose 2500 nM, 6 days, normalized to vehicle control, read-out: MPPs normalized cell count
  activity at 2.5 µM: 28%
[1]; parameter from QSP model fitting, read-out: Emax_drug_MPP
  Emax: 0.03%
[2]; [8]
  pEC50: 8.85
[2]; dose 0.2 nM, 6 days, normalized to vehicle control, read-out: GMPs normalized cell count
  activity at 0.0002 µM: 95.6%
[2]; dose 1 nM, 6 days, normalized to vehicle control, read-out: GMPs normalized cell count
  activity at 0.001 µM: 97.9%
[2]; dose 5 nM, 6 days, normalized to vehicle control, read-out: GMPs normalized cell count
  activity at 0.005 µM: 92.7%
[2]; dose 25 nM, 6 days, normalized to vehicle control, read-out: GMPs normalized cell count
  activity at 0.025 µM: 75.4%
[2]; dose 100 nM, 6 days, normalized to vehicle control, read-out: GMPs normalized cell count
  activity at 0.1 µM: 62.5%
[2]; dose 500 nM, 6 days, normalized to vehicle control, read-out: GMPs normalized cell count
  activity at 0.5 µM: 39.5%
[2]; dose 2500 nM, 6 days, normalized to vehicle control, read-out: GMPs normalized cell count
  activity at 2.5 µM: 22.5%
Granulocytes (Gran-lin); [8]
  pEC50: 9.78
Granulocytes (Gran-lin); dose 0.2 nM, 6 days, normalized to vehicle control, read-out: Gran normalized cell count
  activity at 0.0002 µM: 99.2%
Granulocytes (Gran-lin); dose 1 nM, 6 days, normalized to vehicle control, read-out: Gran normalized cell count
  activity at 0.001 µM: 100%
Granulocytes (Gran-lin); dose 5 nM, 6 days, normalized to vehicle control, read-out: Gran normalized cell count
  activity at 0.005 µM: 90.3%
Granulocytes (Gran-lin); dose 25 nM, 6 days, normalized to vehicle control, read-out: Gran normalized cell count
  activity at 0.025 µM: 78.6%
Granulocytes (Gran-lin); dose 100 nM, 6 days, normalized to vehicle control, read-out: Gran normalized cell count
  activity at 0.1 µM: 51.4%
Granulocytes (Gran-lin); dose 500 nM, 6 days, normalized to vehicle control, read-out: Gran normalized cell count
  activity at 0.5 µM: 27.9%
Granulocytes (Gran-lin); dose 2500 nM, 6 days, normalized to vehicle control, read-out: Gran normalized cell count
  activity at 2.5 µM: 9.84%
Granulocytes (Gran-lin); parameter from QSP model fitting, read-out: Emax_drug_Gran
  Emax: 23.2%
[3]; QSP model fit of 6-day MLTA data, read-out: EC50ErythII
  pEC50: 6.72
[3]; dose 0.2 nM, 6 days, normalized to vehicle control, read-out: ErythII normalized cell count
  activity at 0.0002 µM: 94.6%
[3]; dose 1 nM, 6 days, normalized to vehicle control, read-out: ErythII normalized cell count
  activity at 0.001 µM: 92%
[3]; dose 5 nM, 6 days, normalized to vehicle control, read-out: ErythII normalized cell count
  activity at 0.005 µM: 90%
[3]; dose 25 nM, 6 days, normalized to vehicle control, read-out: ErythII normalized cell count
  activity at 0.025 µM: 86.7%
[3]; dose 100 nM, 6 days, normalized to vehicle control, read-out: ErythII normalized cell count
  activity at 0.1 µM: 55.5%
[3]; dose 500 nM, 6 days, normalized to vehicle control, read-out: ErythII normalized cell count
  activity at 0.5 µM: 23.3%
[3]; dose 2500 nM, 6 days, normalized to vehicle control, read-out: ErythII normalized cell count
  activity at 2.5 µM: 5.88%
[3]; parameter from QSP model fitting, read-out: Emax_drug_ErythroidII
  Emax: 13.6%
MK cells (MK-lin); [8]
  pEC50: 5.97
MK cells (MK-lin); dose 0.2 nM, 6 days, normalized to vehicle control, read-out: MK normalized cell count
  activity at 0.0002 µM: 100%
MK cells (MK-lin); dose 1 nM, 6 days, normalized to vehicle control, read-out: MK normalized cell count
  activity at 0.001 µM: 107%
MK cells (MK-lin); dose 5 nM, 6 days, normalized to vehicle control, read-out: MK normalized cell count
  activity at 0.005 µM: 113%
MK cells (MK-lin); dose 25 nM, 6 days, normalized to vehicle control, read-out: MK normalized cell count
  activity at 0.025 µM: 85.6%
MK cells (MK-lin); dose 100 nM, 6 days, normalized to vehicle control, read-out: MK normalized cell count
  activity at 0.1 µM: 78.4%
MK cells (MK-lin); dose 500 nM, 6 days, normalized to vehicle control, read-out: MK normalized cell count
  activity at 0.5 µM: 49.7%
MK cells (MK-lin); dose 2500 nM, 6 days, normalized to vehicle control, read-out: MK normalized cell count
  activity at 2.5 µM: 16.8%
MK cells (MK-lin); parameter from QSP model fitting, read-out: Emax_drug_MK
  Emax: 12.3%
[4]; dose 0.2 nM, 6 days, normalized to vehicle control, read-out: LymP normalized cell count
  activity at 0.0002 µM: 93.3%
[4]; dose 1 nM, 6 days, normalized to vehicle control, read-out: LymP normalized cell count
  activity at 0.001 µM: 105%
[4]; dose 5 nM, 6 days, normalized to vehicle control, read-out: LymP normalized cell count
  activity at 0.005 µM: 86.9%
[4]; dose 25 nM, 6 days, normalized to vehicle control, read-out: LymP normalized cell count
  activity at 0.025 µM: 77.7%
[4]; dose 100 nM, 6 days, normalized to vehicle control, read-out: LymP normalized cell count
  activity at 0.1 µM: 49.6%
[4]; dose 500 nM, 6 days, normalized to vehicle control, read-out: LymP normalized cell count
  activity at 0.5 µM: 46.4%
[4]; dose 2500 nM, 6 days, normalized to vehicle control, read-out: LymP normalized cell count
  activity at 2.5 µM: 19.2%
[4]; parameter from QSP model fitting, read-out: Emax_drug_LymP
  Emax: 0.032%
[5]; dose 0.2 nM
  viability at 0.0002 µM: 97.8%
[5]; dose 1 nM
  viability at 0.001 µM: 96.4%
[5]; dose 5 nM
  viability at 0.005 µM: 91.2%
[5]; dose 25 nM
  viability at 0.025 µM: 84%
[5]; dose 100 nM
  viability at 0.1 µM: 60.1%
[5]; dose 500 nM
  viability at 0.5 µM: 33.9%
[5]; dose 2500 nM
  viability at 2.5 µM: 12.9%
[6]; dose 0.2 nM
  activity at 0.0002 µM: 105%
[6]; dose 1 nM
  activity at 0.001 µM: 110%
[6]; dose 5 nM
  activity at 0.005 µM: 91.5%
[6]; dose 25 nM
  activity at 0.025 µM: 93.1%
[6]; dose 100 nM
  activity at 0.1 µM: 55.3%
[6]; dose 500 nM
  activity at 0.5 µM: 40.1%
[6]; dose 2500 nM
  activity at 2.5 µM: 34.3%
[7]
  effect on hematopoietic cell numbers across cell types: moderate reduction of cells types; also recorded: decreased most cell types
